# Test results from patent US11000033B2, “Ketone or oxime compound, and herbicide” (NISSAN CHEMICAL CORPORATION, priority 2014, dated 2021).
# What was measured:
# Type in all cases: in vivo
# [1] = tested on: Echinochloa crus-galli var. crus-galli; test: Test Example 5: herbicidal effect by foliage application, plastic box (symbol H); settings: 320 g/ha, 3 weeks after application
# Procedure, shortened: (§1)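 Emulsion formulation, diluted with water to the intended rate, was applied uniformly to leaves by small sprayer. Recipients were 14-day greenhouse-grown seedlings (25° C. to 30° C.). Assessment followed at 3 weeks.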
# transplanted rice plant = test: Test Example 1: effect on crop, application before weed generation in submerged conditions (symbol a); settings: application herbicide amount 320 g/ha
# Procedure, shortened: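 Rice at 2.5 leaf stage transplanted into submerged soil (4 cm depth) sown with three weed species; herbicide applied before weed emergence.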
# rice plant = test: Test Example 5: effect on crop by foliage application, plastic box (symbol b); settings: 320 g/ha, 3 weeks after application
# Procedure, shortened: (§2)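 Greenhouse culture at 25° C. to 30° C. followed spot-like sowing into sterilized diluvial soil, with seed covered by roughly 1.5 cm of soil.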
# Leptochloa chinensis = test: Test Example 3: herbicidal effect by foliage application, Wagner pot (symbol D); settings: application herbicide amount 320 g/ha
# Procedure, shortened: (§3)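 Scoring took place 3 weeks after application, using fixed criteria. Plants had been raised from seed for 14 days at 25 to 30 °C in submerged alluvial soil before a diluted emulsion of the test compound was sprayed uniformly on the leaves.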
# Digitaria ciliaris = test: Test Example 4: herbicidal effect by soil treatment (symbol F); settings: application herbicide amount 320 g/ha
# Procedure, shortened: (§4)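 Seeds were sown in sterilized diluvial soil, covered with about 1.5 cm of soil, and the soil surface was sprayed with a water-diluted emulsion of the compound at a predetermined rate. Plants grew in a greenhouse at 25° C. to 30° C.; effects were scored visually 3 weeks after application.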
# Veronica persica = test: Test Example 4: herbicidal effect by soil treatment (symbol R); settings: application herbicide amount 320 g/ha
# Procedure, shortened: as §4
# Abutilon theophrasti [2] = test: Test Example 4: herbicidal effect by soil treatment (symbol M); settings: application herbicide amount 320 g/ha
# Procedure, shortened: as §4
# Setaria viridis [3] = test: Test Example 5: herbicidal effect by foliage application, plastic box (symbol G); settings: 320 g/ha, 3 weeks after application
# Procedure, shortened: as §1
# Apera spica-venti [4] = test: Test Example 4: herbicidal effect by soil treatment (symbol L); settings: application herbicide amount 320 g/ha
# Procedure, shortened: as §4
# [5] = tested on: Echinochloa crus-galli var. crus-galli; test: Test Example 3: herbicidal effect by foliage application, Wagner pot (symbol H); settings: application herbicide amount 320 g/ha
# Procedure, shortened: as §3
# Stellaria media [6] = test: Test Example 5: herbicidal effect by foliage application, plastic box (symbol P); settings: 320 g/ha, 3 weeks after application
# Procedure, shortened: as §1
# Lolium multiflorum Lam. = test: Test Example 4: herbicidal effect by soil treatment (symbol K); settings: application herbicide amount 320 g/ha
# Procedure, shortened: as §4
# rapeseed = test: Test Example 5: effect on crop by foliage application, plastic box (symbol g); settings: 320 g/ha, 3 weeks after application
# Procedure, shortened: as §2
# Avena fatua = test: Test Example 5: herbicidal effect by foliage application, plastic box (symbol I); settings: 320 g/ha, 3 weeks after application
# Procedure, shortened: as §1
# Stellaria media [7] = test: Test Example 4: herbicidal effect by soil treatment (symbol P); settings: application herbicide amount 320 g/ha
# Procedure, shortened: as §4
# beet = test: Test Example 5: effect on crop by foliage application, plastic box (symbol f); settings: 320 g/ha, 3 weeks after application
# Procedure, shortened: as §2
# [8] = tested on: directly sowed rice plant; test: Test Example 3: effect on crop by foliage application, Wagner pot (symbol b); settings: application herbicide amount 320 g/ha
# Procedure, shortened: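 Steps: fill a 1/10000-are Wagner pot with alluvial soil; add water and mix to submerge at 0.1–0.5 cm depth; sow rice plus Echinochloa crus-galli var. crus-galli, Leptochloa chinensis and Cyperus difformis; grow in a 25–30 °C greenhouse.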
# Abutilon theophrasti [9] = test: Test Example 5: herbicidal effect by foliage application, plastic box (symbol M); settings: 320 g/ha, 3 weeks after application
# Procedure, shortened: as §1
# Amaranthus retroflexus = test: Test Example 4: herbicidal effect by soil treatment (symbol N); settings: application herbicide amount 320 g/ha
# Procedure, shortened: as §4
# Chenopodium album = test: Test Example 4: herbicidal effect by soil treatment (symbol O); settings: application herbicide amount 320 g/ha
# Procedure, shortened: as §4
# Setaria viridis [10] = test: Test Example 4: herbicidal effect by soil treatment (symbol G); settings: application herbicide amount 320 g/ha
# Procedure, shortened: as §4
# Apera spica-venti [11] = test: Test Example 5: herbicidal effect by foliage application, plastic box (symbol L); settings: 320 g/ha, 3 weeks after application
# Procedure, shortened: as §1
Structure (SMILES),"H: Echinochloa crus-galli var. crus-galli, herbicidal effect (criteria of Test Example 1) [1]","Effect grade on crop, a: transplanted rice plant (transplanted rice plant)","b: directly sowed rice plant, effect on crop (criteria of Test Example 1) (rice plant)","herbicidal effect on D (Leptochloa chinensis), grade 0-5 (Leptochloa chinensis)","Herbicidal effect grade, F: Digitaria ciliaris (Digitaria ciliaris)","Herbicidal effect grade, R: Veronica persica (Veronica persica)","Herbicidal effect grade, M: Abutilon theophrasti (Abutilon theophrasti [2])","G: Setaria viridis, herbicidal effect (criteria of Test Example 1) (Setaria viridis [3])","Herbicidal effect grade, L: Apera spica-venti (Apera spica-venti [4])","herbicidal effect on H (Echinochloa crus-galli var. crus-galli), grade 0-5 [5]","P: Stellaria media, herbicidal effect (criteria of Test Example 1) (Stellaria media [6])","Herbicidal effect grade, K: Lolium multiflorum Lam. (Lolium multiflorum Lam.)","g: rapeseed, effect on crop (criteria of Test Example 1) (rapeseed)","I: Avena fatua, herbicidal effect (criteria of Test Example 1) (Avena fatua)","Herbicidal effect grade, P: Stellaria media (Stellaria media [7])","f: beet, effect on crop (criteria of Test Example 1) (beet)","effect on crop b (directly sowed rice plant), grade 0-5 [8]","M: Abutilon theophrasti, herbicidal effect (criteria of Test Example 1) (Abutilon theophrasti [9])","Herbicidal effect grade, N: Amaranthus retroflexus (Amaranthus retroflexus)","Herbicidal effect grade, O: Chenopodium album (Chenopodium album)",further results
CC(=O)CC1CC(O)=C(c2c(C)cc(-c3ccccc3)cc2C)C1=O (stereo not drawn) [7-004],5 (Herbicidal ratio of 90% or more (almost completely withered)),5 (Herbicidal ratio of 90% or more (almost completely withered)),5 (Herbicidal ratio of 90% or more (almost completely withered)),5 (Herbicidal ratio of 90% or more (almost completely withered)),5 (Herbicidal ratio of 90% or more (almost completely withered)),0 (Herbicidal ratio of 5% or lower (almost no effect)),3 (Herbicidal ratio of 40% or higher and lower than 70%),4 (Herbicidal ratio of 70% or higher and lower than 90%),5 (Herbicidal ratio of 90% or more (almost completely withered)),5 (Herbicidal ratio of 90% or more (almost completely withered)),0 (Herbicidal ratio of 5% or lower (almost no effect)),5 (Herbicidal ratio of 90% or more (almost completely withered)),3 (Herbicidal ratio of 40% or higher and lower than 70%),2 (Herbicidal ratio of 20% or higher and lower than 40%),0 (Herbicidal ratio of 5% or lower (almost no effect)),0 (Herbicidal ratio of 5% or lower (almost no effect)),5 (Herbicidal ratio of 90% or more (almost completely withered)),0 (Herbicidal ratio of 5% or lower (almost no effect)),2 (Herbicidal ratio of 20% or higher and lower than 40%),0 (Herbicidal ratio of 5% or lower (almost no effect)),"Herbicidal effect grade, G: Setaria viridis (Setaria viridis [10]): 5 (Herbicidal ratio of 90% or more (almost completely withered)); L: Apera spica-venti, herbicidal effect (criteria of Test Example 1) (Apera spica-venti [11]): 5 (Herbicidal ratio of 90% or more (almost completely withered))"
COc1ccc(-c2cc(C)c(C3=C(O)CC(CC(C)=O)C3=O)c(C)c2)cc1 (stereo not drawn) [7-006],5 (Herbicidal ratio of 90% or more (almost completely withered)),2 (Herbicidal ratio of 20% or higher and lower than 40%),5 (Herbicidal ratio of 90% or more (almost completely withered)),5 (Herbicidal ratio of 90% or more (almost completely withered)),0 (Herbicidal ratio of 5% or lower (almost no effect)),0 (Herbicidal ratio of 5% or lower (almost no effect)),0 (Herbicidal ratio of 5% or lower (almost no effect)),5 (Herbicidal ratio of 90% or more (almost completely withered)),0 (Herbicidal ratio of 5% or lower (almost no effect)),5 (Herbicidal ratio of 90% or more (almost completely withered)),0 (Herbicidal ratio of 5% or lower (almost no effect)),2 (Herbicidal ratio of 20% or higher and lower than 40%),3 (Herbicidal ratio of 40% or higher and lower than 70%),3 (Herbicidal ratio of 40% or higher and lower than 70%),0 (Herbicidal ratio of 5% or lower (almost no effect)),0 (Herbicidal ratio of 5% or lower (almost no effect)),5 (Herbicidal ratio of 90% or more (almost completely withered)),0 (Herbicidal ratio of 5% or lower (almost no effect)),0 (Herbicidal ratio of 5% or lower (almost no effect)),0 (Herbicidal ratio of 5% or lower (almost no effect)),"Herbicidal effect grade, G: Setaria viridis (Setaria viridis [10]): 0 (Herbicidal ratio of 5% or lower (almost no effect)); L: Apera spica-venti, herbicidal effect (criteria of Test Example 1) (Apera spica-venti [11]): 4 (Herbicidal ratio of 70% or higher and lower than 90%)"
CC(=O)CC1CC(O)=C(c2c(C)cc(-c3ccc(Cl)cc3)cc2C)C1=O (stereo not drawn) [7-008],5 (Herbicidal ratio of 90% or more (almost completely withered)),5 (Herbicidal ratio of 90% or more (almost completely withered)),5 (Herbicidal ratio of 90% or more (almost completely withered)),5 (Herbicidal ratio of 90% or more (almost completely withered)),5 (Herbicidal ratio of 90% or more (almost completely withered)),0 (Herbicidal ratio of 5% or lower (almost no effect)),0 (Herbicidal ratio of 5% or lower (almost no effect)),5 (Herbicidal ratio of 90% or more (almost completely withered)),5 (Herbicidal ratio of 90% or more (almost completely withered)),5 (Herbicidal ratio of 90% or more (almost completely withered)),1 (Herbicidal ratio of 5% or higher and lower than 20%),5 (Herbicidal ratio of 90% or more (almost completely withered)),3 (Herbicidal ratio of 40% or higher and lower than 70%),5 (Herbicidal ratio of 90% or more (almost completely withered)),0 (Herbicidal ratio of 5% or lower (almost no effect)),0 (Herbicidal ratio of 5% or lower (almost no effect)),5 (Herbicidal ratio of 90% or more (almost completely withered)),1 (Herbicidal ratio of 5% or higher and lower than 20%),0 (Herbicidal ratio of 5% or lower (almost no effect)),0 (Herbicidal ratio of 5% or lower (almost no effect)),"Herbicidal effect grade, G: Setaria viridis (Setaria viridis [10]): 5 (Herbicidal ratio of 90% or more (almost completely withered)); L: Apera spica-venti, herbicidal effect (criteria of Test Example 1) (Apera spica-venti [11]): 5 (Herbicidal ratio of 90% or more (almost completely withered))"
